Results published in patent US20140256015A1, “CAGED COMPOUND WHICH CAN BE PHOTOACTIVATED SELECTIVELY FOR CELL TYPES” (Toho University, priority 2013, published 2014).

What was measured:
[1] = Photocleaving by 405 nm photoirradiation, monitored by C18 reverse phase HPLC; assay type: physicochemical; conditions: 10^−5 M KMOPS solution (0.1% DMSO, pH 7.3), irradiation 0 to 30 s (Bhcmoc-propargyl) or 0 to 300 s (Gal-Bhcmoc-propargyl)
Text: The 10^−5 M KMOPS solution (0.1% DMSO, pH 7.3) of Gal-Bhcmoc-propargyl or Bhcmoc-propargyl was irradiated with light with 405 nm. The reaction progress was monitored over photoirradiation time by C18 reverse phase HPLC.

β-Gal = β-Gal (Escherichia coli, UniProt P00722); experiment: Conversion of Gal-Bhcmoc-propargyl to Bhcmoc-propargyl in the presence of β-Gal, followed by HPLC; assay type: biochemical; conditions: 15 μM compound, β-Gal 0.25 ng/μL, 0.1 M phosphate buffer pH 7.3, 37° C., after 1 hour
β-Gal, sequence (P00722 2-1024): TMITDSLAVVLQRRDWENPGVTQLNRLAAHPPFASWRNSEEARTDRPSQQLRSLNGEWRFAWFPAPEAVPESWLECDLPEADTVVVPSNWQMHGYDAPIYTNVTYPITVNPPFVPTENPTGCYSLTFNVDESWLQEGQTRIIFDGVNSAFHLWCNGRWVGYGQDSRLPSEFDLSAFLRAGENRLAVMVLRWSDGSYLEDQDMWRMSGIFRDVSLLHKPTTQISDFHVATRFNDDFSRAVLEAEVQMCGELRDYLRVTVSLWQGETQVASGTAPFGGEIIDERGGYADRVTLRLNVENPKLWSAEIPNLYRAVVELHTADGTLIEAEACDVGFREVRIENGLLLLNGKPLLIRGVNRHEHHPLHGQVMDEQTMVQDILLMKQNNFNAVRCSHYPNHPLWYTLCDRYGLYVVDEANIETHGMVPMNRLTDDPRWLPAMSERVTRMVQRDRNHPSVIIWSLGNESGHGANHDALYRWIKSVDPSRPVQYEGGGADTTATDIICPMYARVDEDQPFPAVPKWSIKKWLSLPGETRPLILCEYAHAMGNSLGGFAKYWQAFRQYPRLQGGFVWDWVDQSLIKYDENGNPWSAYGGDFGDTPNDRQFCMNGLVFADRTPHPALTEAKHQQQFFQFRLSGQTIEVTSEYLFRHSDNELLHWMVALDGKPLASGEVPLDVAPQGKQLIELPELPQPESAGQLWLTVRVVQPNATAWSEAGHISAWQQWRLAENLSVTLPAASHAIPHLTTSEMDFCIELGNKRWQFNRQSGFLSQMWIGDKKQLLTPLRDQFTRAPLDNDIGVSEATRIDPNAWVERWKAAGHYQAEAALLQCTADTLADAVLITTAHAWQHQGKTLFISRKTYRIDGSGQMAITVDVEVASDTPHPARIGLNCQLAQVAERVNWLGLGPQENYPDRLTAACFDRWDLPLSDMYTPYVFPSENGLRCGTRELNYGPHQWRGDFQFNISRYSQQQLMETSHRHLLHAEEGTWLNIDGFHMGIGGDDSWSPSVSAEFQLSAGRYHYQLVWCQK
Protocol: To 0.1 M phosphate buffer (pH 7.3) containing Gal-Bhcmoc-propargyl (final concentration of 15 μM), mercaptoethanol (0.11 M), and magnesium chloride (1 mM), β-Gal was added to a final concentration of 0.25 ng/μL. While the reaction solution was kept at 37° C., the reaction progress was followed by HPLC (see Table 2 for analytical conditions).

[2] = UV spectrum (absorption wavelengths); assay type: physicochemical; conditions: 10^−5 M KMOPS solution (0.1% DMSO, pH 7.3)
Protocol: UV spectra were measured for the 10^−5 M KMOPS solution (0.1% DMSO, pH 7.3) of Gal-Bhcmoc-propargyl and the 10^−5 M KMOPS solution (0.1% DMSO, pH 7.3) of Bhcmoc-propargyl.

| Structure (SMILES) | photocleaving (decrease of compound) on 405-nm photoirradiation [1] | conversion to Bhcmoc-propargyl (Bhc group) by β-Gal (β-Gal) | εmax [2] | λmax [2] |
| --- | --- | --- | --- | --- |
| C#CCNC(=O)OCc1cc(=O)oc2cc(O[C@@H]3O[C@H](CO)[C@H](O)[C@H](O)[C@H]3O)c(Br)cc12 [Gal-Bhcmoc-propargyl] | no decrease was confirmed | completely converted |  |  |
| C#CCNC(=O)OCc1cc(=O)oc2cc(O)c(Br)cc12 [Bhcmoc-propargyl, (6-bromo-7-hydroxycoumarin-4-yl)methoxycarbonylpropargylamide] | decreases in Bhcmoc-propargyl and increases in the photocleaved product could be confirmed |  | 17400 M⁻¹ cm⁻¹ | 369 nm |
